Results as given in patent US8519096B2, “Citrullinated peptides for diagnosing and prognosing rheumatoid arthritis” (Nestec S.A., priority 2009, dated 2013).
Non-standard residues stand in square brackets, D forms with d. *: point of attachment. Biotin = O=C1N[C@H]2[C@H](CS[C@H]2CCCCC(=O)*)N1; Cit = NC(=O)NCCC[C@H](N)C(=O)O

Experiments:
[1] = tested on: anti-citrullinated protein antibodies (ACPAs); details: FIG. 3 and FIG. 7; compared with the other peptides tested
Procedure: (§1) This example describes an enzyme-linked immunosorbent assay (ELISA) for detecting (e.g., measuring) the presence (or absence) or level of anti-citrullinated protein antibodies (ACPAs) in an individual's sample. As a non-limiting example, a 96-well immunoassay plate was coated with avidin (e.g., neutravidin) and the plate was blocked with 5% bovine serum albumin in phosphate buffered saline. Biotinylated synthetic citrullinated peptides of the present invention were incubated with the avidin-coated plate. […] Unbound samples were washed out and RA-associated autoantibodies directed against the immobilized citrullinated peptide were detected with an enzyme-labeled (e.g., HRP-labeled) anti-human IgA, IgG, IgM, or IgA/G/M secondary antibody.

IgA/G/M ACPAs = tested on: IgA/G/M ACPAs
Procedure: as §1

IgG ACPAs = experiment: ACPA ELISA with anti-human IgG secondary antibody; format: binding
Procedure: The synthetic citrullnated peptides set forth in Example 6, which were designed from synovial proteins, were synthesized and evaluated for their ability to diagnose and/or prognose RA. […] The peptides were then tested for IgG ACPA dose-response in samples of synovial fluid taken from both healthy patients and patients with RA.

IgM ACPAs = tested on: IgM ACPAs
Procedure: as §1

IgA ACPAs = tested on: IgA ACPAs
Procedure: as §1

| Substance | dose-response curve in ACPA ELISA (in words) [1] | further results |
| --- | --- | --- |
| Biotin-GGGATRSSAVRL[Cit]SSVPGVRLLQDS-NH2 [VMT3] | strong dose-response curves | sensitivity for autoantibodies of the IgA/G/M classes (in words) (IgA/G/M ACPAs): particularly high sensitivity; sensitivity for autoantibodies of the IgG class (in words) (IgG ACPAs): particularly high sensitivity |
| Biotin-GGGATRSSAV[Cit]LRSSVPGVRLLQDS-NH2 [VMT2] | strong dose-response curves | sensitivity for autoantibodies of the IgM class (in words) (IgM ACPAs): particularly high sensitivity; sensitivity for autoantibodies of the IgA class (in words) (IgA ACPAs): particularly high sensitivity; IgG ACPA positive response (strong/moderate) (IgG ACPAs; Example 7, FIGS. 20-27): moderate |
| Biotin-GGGAT[Cit]SSAV[Cit]L[Cit]SSVPGV[Cit]LLQDS-NH2 [VMT5] | weak dose-response curve |  |
| Biotin-HSTK[Cit]GHAKSRPV[Cit]G-NH2 [FB4] | stronger dose-response curve |  |
| Biotin-[Cit]PAPPPISGGGY[Cit]A[Cit]-NH2 [FB3] | stronger dose-response curve |  |
